From patent US20250042887A1, “GLYCOGEN SYNTHASE KINASE-3 (GSK3) INHIBITOR COMPOUNDS FOR USE AS ANTIVIRAL AGENTS” (priority 2021, published 2025)
“Also recorded” adds a separate entry of the source. Where two headings read alike, the source gives them in different places.

Key:
HCoV-229E [1] = experiment: Dose-response of HCoV-229E viral load (dsRNA) in Huh-7.5.1 cells; assay type: cell-based, human coronavirus 229E (HCoV-229E); settings: Human coronavirus 229E, read-out: ED50 (HCoV-229E)
SARS-CoV-2 [2] = experiment: Viral titer released from 48-hour SARS-CoV-2 infected Calu-3 cells; assay type: cell-based; settings: 48 hours after infection, 100 μM
HCoV-229E [3] = assay type: cell-based, human coronavirus 229E (HCoV-229E)
SARS-CoV-2 [4] = experiment: SARS-CoV-2 infected primary donor-derived colon organoids, intracellular N protein; assay type: cell-based; settings: donor intestinal organoids monolayer, 72-hours post infection, dose-dependent
Huh-7.5.1 cells = settings: single dose of 10 μM
Description: High content screening methodology and parameters. Monitoring of the total number of cells (based on nuclei staining) and number of virus infected cells (based on dsRNA and Nucleocapsid staining) was performed using the CellInsight CX7™ High Content Screening platform (Thermo Fisher™), as previously described (33042061). Shortly, nuclei are identified and counted using the 350′461 nm wavelength (Hoechst 33342™); cell debris and other particles are deducted based on a size filter tool. A Region of Interest (ROI, or “circle”) is then drawn around each host cell and validated against the bright field image to correspond with host cell membranes. The ROI encompasses the “spots”, where dsRNA (485/521 nm wavelength) and SARS-CoV-2 nucleocapsid (533/588 nm wavelength) are localized. Finally, the software (HCS Studio Cell Analysis Software™, version 4.0) identifies, counts and measures the pixel area and intensity of the spots within each circle. The fluorescent spot area measured within each cell (circle) is then added and quantified for each well. The total circle spot intensity of each well corresponds to the viral load, and is normalized to non-infected cells, and to cells infected with no compound. Nuclei stain (Hoechst 33342™) was used to quantify cell loss (due to cytotoxicity or loss of adherence), and to normalize the changes in viral load resulting from a decrease in cell numbers.

HCoV-229E [5] = experiment: High-content screen of GSK3β-focused library in HCoV-229E infected Huh-7.5.1 cells (intracellular dsRNA); assay type: cell-based, human coronavirus 229E (HCoV-229E); settings: Human coronavirus 229E, single dose of 10 μM, Z′ 0.7
SARS-CoV-2 [6] = experiment: Dose-response inhibition in three SARS-CoV-2 infected immortalized cell lines (Huh-7.5.1, Caco-2, Calu-3); assay type: cell-based; settings: Severe acute respiratory syndrome coronavirus 2; Huh-7.5.1, Caco-2 and Calu-3 cells; read-out: ED50 in all investigated cell lines
SARS-CoV-2 [7] = experiment: Dose-response of SARS-CoV-2 viral load (intracellular N protein) in Huh-7.5.1 cells; assay type: cell-based
in vitro = settings: human
SARS-CoV-2 [8] = experiment: High-content screen of GSK3β-focused library in SARS-CoV-2 infected Huh-7.5.1 cells (dsRNA or nucleocapsid); assay type: cell-based; settings: Severe acute respiratory syndrome coronavirus 2, single dose of 10 μM, Huh-7.5.1 cells
[9] = system: SARS-CoV-2 Spike S1 protein expression; assay type: cell-based
casein kinase 1-delta = target: T1, casein kinase 1-delta (Homo sapiens, UniProt P48730); experiment: In vitro phosphorylation of nucleocapsid peptides, ADP-Glo, CK1d; assay type: biochemical; settings: peptide ~250 μM, 250 μM ATP, 30 min at 30° C.; duplicate measurements
T1 construct: GST; purchased SignalChem C65-10G

PKCa + GSK3b = experiment: In vitro phosphorylation of nucleocapsid peptides, ADP-Glo, PKCa + GSK3b combined; assay type: biochemical, human; settings: Mean ± S.Dev. (n = 3); no kinase control = 100
[10] = target: cAMP-dependent protein kinase catalytic subunit-alpha (PKACa) (Homo sapiens, UniProt P17612); experiment: In vitro phosphorylation of nucleocapsid peptides, ADP-Glo, PKACa; assay type: biochemical; settings: peptide ~250 μM, 250 μM ATP, 30 min at 30° C.; duplicate measurements
[11] = target: T2, glycogen synthase kinase-3-beta (Homo sapiens, UniProt P49841); experiment: In vitro phosphorylation of nucleocapsid peptides, ADP-Glo, GSK3b; assay type: biochemical
T2 construct: GST; purchased SignalChem Go9-10G

[12] = target: T3, extracellularly-regulated kinase-1 (ERK1) (Homo sapiens, UniProt P27361); experiment: In vitro phosphorylation of nucleocapsid peptides, ADP-Glo, ERK1; assay type: biochemical; settings: peptide ~250 μM, 250 μM ATP, 30 min at 30° C.; duplicate measurements
T3 construct: GST; purchased SignalChem M29-10G

[13] = target: T4, casein kinase 1-gamma-1 (CK1γ1) (Homo sapiens, UniProt Q9HCP0); experiment: In vitro phosphorylation of nucleocapsid peptides, ADP-Glo, CK1g1; assay type: biochemical; settings: peptide ~250 μM, 250 μM ATP, 30 min at 30° C.; duplicate measurements
T4 construct: GST; purchased SignalChem C68-11G

[14] = target: cyclin-dependent kinase 2/cyclin A2 (CDK2/A2) (Homo sapiens, UniProt P24941); experiment: In vitro phosphorylation of nucleocapsid peptides, ADP-Glo, CDK2/cyclin A2; assay type: biochemical; settings: peptide ~250 μM, 250 μM ATP, 30 min at 30° C.; duplicate measurements
[15] = target: T5, protein kinase C-alpha (PKC α) (Homo sapiens, UniProt P17252); experiment: In vitro phosphorylation of nucleocapsid peptides, ADP-Glo, PKCa; assay type: biochemical; settings: Mean ± S.Dev. (n = 3); no kinase control = 100
T5 construct: GST; purchased SignalChem P61-18G

T2 sequence (P49841 whole entry): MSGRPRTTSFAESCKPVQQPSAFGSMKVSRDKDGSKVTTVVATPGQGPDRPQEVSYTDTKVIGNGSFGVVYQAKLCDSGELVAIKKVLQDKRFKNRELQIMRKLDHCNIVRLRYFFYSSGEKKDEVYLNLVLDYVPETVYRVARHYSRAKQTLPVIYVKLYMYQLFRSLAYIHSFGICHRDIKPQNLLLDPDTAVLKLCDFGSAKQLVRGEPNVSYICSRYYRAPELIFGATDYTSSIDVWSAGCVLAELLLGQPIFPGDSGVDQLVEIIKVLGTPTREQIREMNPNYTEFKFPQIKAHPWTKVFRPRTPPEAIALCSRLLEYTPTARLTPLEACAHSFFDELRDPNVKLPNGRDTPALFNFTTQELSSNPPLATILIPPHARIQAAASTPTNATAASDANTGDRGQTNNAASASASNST
T3 sequence (P27361 whole entry): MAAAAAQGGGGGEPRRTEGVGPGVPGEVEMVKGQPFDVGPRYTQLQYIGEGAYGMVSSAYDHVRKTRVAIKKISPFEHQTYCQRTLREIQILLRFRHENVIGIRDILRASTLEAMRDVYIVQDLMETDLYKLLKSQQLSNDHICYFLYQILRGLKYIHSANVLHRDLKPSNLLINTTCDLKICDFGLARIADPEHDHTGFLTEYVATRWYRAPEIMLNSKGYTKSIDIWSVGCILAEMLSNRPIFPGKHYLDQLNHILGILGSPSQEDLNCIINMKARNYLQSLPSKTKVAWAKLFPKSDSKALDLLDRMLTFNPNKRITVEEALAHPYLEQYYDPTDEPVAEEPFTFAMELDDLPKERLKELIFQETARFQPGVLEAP
T4 sequence (Q9HCP0 whole entry): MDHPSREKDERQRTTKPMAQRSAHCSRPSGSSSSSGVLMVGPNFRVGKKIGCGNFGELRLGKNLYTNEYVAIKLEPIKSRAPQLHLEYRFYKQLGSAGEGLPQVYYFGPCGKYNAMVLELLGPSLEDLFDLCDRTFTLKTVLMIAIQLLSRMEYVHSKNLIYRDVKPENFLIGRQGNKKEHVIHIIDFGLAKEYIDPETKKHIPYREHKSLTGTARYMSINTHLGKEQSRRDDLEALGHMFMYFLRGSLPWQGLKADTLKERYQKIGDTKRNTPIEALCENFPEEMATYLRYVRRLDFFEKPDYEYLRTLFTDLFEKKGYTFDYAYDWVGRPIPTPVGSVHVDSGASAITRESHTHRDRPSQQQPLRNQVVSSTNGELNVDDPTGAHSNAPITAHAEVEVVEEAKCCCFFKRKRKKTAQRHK
T1 sequence (P48730 whole entry): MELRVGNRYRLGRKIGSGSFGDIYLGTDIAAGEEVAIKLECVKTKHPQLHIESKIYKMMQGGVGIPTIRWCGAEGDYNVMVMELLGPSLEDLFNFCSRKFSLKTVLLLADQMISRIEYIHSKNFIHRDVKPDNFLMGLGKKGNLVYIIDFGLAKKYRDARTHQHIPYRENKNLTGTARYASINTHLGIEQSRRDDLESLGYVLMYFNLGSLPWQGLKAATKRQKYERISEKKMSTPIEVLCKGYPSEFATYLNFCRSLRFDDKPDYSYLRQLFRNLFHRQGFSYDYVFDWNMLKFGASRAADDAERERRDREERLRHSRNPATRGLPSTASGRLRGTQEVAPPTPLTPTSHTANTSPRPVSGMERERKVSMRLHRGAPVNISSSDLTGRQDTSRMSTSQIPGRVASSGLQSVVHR

CSc1ccc(-n2cnc3ccc(-c4nnc(CCc5cccc(C#N)c5)o4)cc32)cc1 [Compound P-0717632]
EC50 (HCoV-229E [1]): ~3 µM
reduction of release of infective particles (SARS-CoV-2 [2]): 2 log
average Combination Index (CI) (HCoV-229E [3]): 0.7
effect on intracellular N protein levels in organoids (SARS-CoV-2 [4]): greatly decrease intracellular N protein levels
Average cell loss (%) (Huh-7.5.1 cells): 24.4%
inhibition at 10 µM (HCoV-229E [5]): 97.6%
EC50 (SARS-CoV-2 [6]): 4 to 7 µM
SARS-CoV-2 Selectivity Index SI (CC50 over ED50) (SARS-CoV-2 [7]; Huh 7.5.1 cells): 68
ED80 (SARS-CoV-2 [7]; SARS-CoV-2 infected Huh-7.5.1 cells): 10 µM
EC50 (SARS-CoV-2 [7]; Severe acute respiratory syndrome coronavirus 2, Huh-7.5.1, Huh-7.5.1 cells, intracellular N protein, read-out: ED50 (SARS-CoV-2)): ~3 µM
CC50 (in vitro): > 100 µM
inhibition at 10 µM (SARS-CoV-2 [8]; Z′ 0.3, read-out: SARS-CoV-2 inhibition (% dsRNA)): 68.2%
inhibition at 10 µM (SARS-CoV-2 [8]; average of screens 1 and 2, read-out: Average SARS-CoV-2 Nucleocapsid inhibition): 79.3%
inhibition at 10 µM (SARS-CoV-2 [8]; screen 1, Z′ 0.7, read-out: SARS-CoV-2 inhibition (% Nucleocapsid) 1): 75.2%
inhibition at 10 µM (SARS-CoV-2 [8]; screen 2, Z′ 0.5, read-out: SARS-CoV-2 inhibition (% Nucleocapsid) 2): 83.3%
Spike S1 protein expression [9]: blocked; also recorded: reduced

RNSTPGSSRGTSPAR [SCV2-N [195-209], synthetic peptide modeled after SARS-CoV-2 nucleocapsid protein phosphorylation sites]
Relative Phosphorylation to Autophosphorylation Control (set at 100), CK1d (casein kinase 1-delta): 101
Relative Phosphorylation to No Kinase Control, PKCa + GSK3b (PKCa + GSK3b): 4262 ± 27
Relative Phosphorylation to Autophosphorylation Control (set at 100), PKACa [10]: 151
Relative Phosphorylation to No Kinase Control, GSK3b ([11]; Mean ± S.Dev. (n = 3), no kinase control = 100): 3291 ± 57
Relative Phosphorylation to Autophosphorylation Control (set at 100), GSK3b ([11]; peptide ~250 μM, 250 μM ATP, 30 min at 30° C., duplicate measurements): 137
Relative Phosphorylation to Autophosphorylation Control (set at 100), ERK1 [12]: 102
Relative Phosphorylation to Autophosphorylation Control (set at 100), CK1g1 [13]: 104
Relative Phosphorylation to Autophosphorylation Control (set at 100), CDK2 + Cyclin A2 [14]: 104
Relative Phosphorylation to No Kinase Control, PKCa [15]: 3301 ± 114
